Active and inactive are the calls of the source.
Experiments:
[1] = Antiproliferative activity against human Intestinal epithelial cell assessed as inhibition of cell growth incubated for 48 hrs by MTT assay; assay type: toxicity, cell-based; settings: human intestinal epithelial cells
BaF3 = experiment: Antiproliferative activity against mouse BaF3 transfected with FGFR4 assessed as inhibition of cell growth incubated for 72 hrs by CCK-8 assay; assay type: toxicity, cell-based; settings: BaF3, 72 h
SW480 [2] = experiment: Antiproliferative activity against human SW480 cells assessed as inhibition of colony formation incubated for 2 weeks by crystal violet staining method; assay type: functional, cell-based
SW480 [3] = experiment: Antiproliferative activity against human SW480 cells assessed as inhibition of cell growth incubated for 48 hrs by EdU staining method; assay type: functional, cell-based
RKO [4] = experiment: Antiproliferative activity against human RKO cells assessed as inhibition of cell growth incubated for 48 hrs by EdU staining method; assay type: functional, cell-based
SW480 [5] = experiment: Induction of cell cycle arrest in human SW480 cells assessed as accumulation of cells at G2/M phase incubated for 48 hrs by propidium iodide staining based flow cytometry; assay type: functional
RKO [6] = experiment: Induction of cell cycle arrest in human RKO cells assessed as accumulation of cells at G2/M phase incubated for 48 hrs by propidium iodide staining based flow cytometry; assay type: functional
HCT-116 [7] = experiment: Induction of cell cycle arrest in human HCT-116 cells assessed as downregulation of cyclin B1 expression at 1.5 to 6 uM by immunoblotting analysis; assay type: functional, cell-based; settings: dose 1.5-6 µM
HCT-116 [8] = experiment: Induction of cell cycle arrest in human HCT-116 cells assessed as downregulation of CDC2 expression at 1.5 to 6 uM by immunoblotting analysis; assay type: functional, cell-based; settings: dose 1.5-6 µM
SW480 [9] = experiment: Induction of cell cycle arrest in human SW480 cells assessed as downregulation of cyclin B1 expression at 1.5 to 6 uM by immunoblotting analysis; assay type: functional, cell-based; settings: dose 1.5-6 µM
SW480 [10] = experiment: Induction of cell cycle arrest in human SW480 cells assessed as downregulation of CDC2 expression at 1.5 to 6 uM by immunoblotting analysis; assay type: functional, cell-based; settings: dose 1.5-6 µM
RKO [11] = experiment: Induction of cell cycle arrest in human RKO cells assessed as downregulation of cyclin B1 expression at 1.5 to 6 uM by immunoblotting analysis; assay type: functional, cell-based; settings: dose 1.5-6 µM
HCT-116 [12] = experiment: Induction of apoptosis in human HCT-116 cells at 3 to 12 uM incubated for 48 hrs by Annexin V-FITC/PI staining based flow cytometric analysis relative to control; assay type: functional; settings: dose 3-12 µM
HCT-116 [13] = experiment: Anti-migration activity in human HCT-116 cells assessed as change in N-cad expression at 3 to 12 uM by Western blotting analysis; assay type: functional, cell-based; settings: dose 3-12 µM
SW480 [14] = experiment: Anti-migration activity in human SW480 cells assessed as change in N-cad expression at 3 to 12 uM by Western blotting analysis; assay type: functional, cell-based; settings: dose 3-12 µM
[15] = Toxicity in ICR mouse assessed as change in body weight at 20 mg/kg,po administrated for 1 week; assay type: organism-based; settings: in vivo, 168 h, time 1 weeks
[16] = Toxicity in ICR mouse assessed as change in body weight at 60 mg/kg,po administrated for 1 week; assay type: organism-based; settings: in vivo, 168 h, time 1 weeks
[17] = Toxicity in ICR mouse assessed as change in heart weight at 60 mg/kg,po administrated for 1 week; assay type: organism-based; settings: in vivo, 168 h, time 1 weeks
[18] = Toxicity in ICR mouse assessed as change in spleen weight at 20 mg/kg,po administrated for 1 week; assay type: organism-based; settings: in vivo, 168 h, time 1 weeks
[19] = Toxicity in ICR mouse assessed as change in kidney weight at 20 mg/kg,po administrated for 1 week; assay type: organism-based; settings: in vivo, 168 h, time 1 weeks
[20] = Hepatotoxicity in ICR mouse assessed as change in serum creatinine level at 60 mg/kg,po administrated for 1 week; assay type: toxicity, organism-based; settings: in vivo, 168 h, time 1 weeks
[21] = Hepatotoxicity in ICR mouse assessed as change in serum ALT level at 60 mg/kg,po administrated for 1 week; assay type: toxicity, organism-based; settings: in vivo, 168 h, time 1 weeks
[22] = Toxicity in ICR mouse assessed as histopathological change in liver at 20 mg/kg,po administrated for 1 week by hematoxylin and eosin staining analysis; assay type: organism-based; settings: in vivo, 168 h, time 1 weeks
[23] = Toxicity in ICR mouse assessed as histopathological change in liver at 60 mg/kg,po administrated for 1 week by hematoxylin and eosin staining analysis; assay type: organism-based; settings: in vivo, 168 h, time 1 weeks
[24] = Toxicity in BALB/c mouse xenografted with human HCT-116 cells assessed as change in body weight at 10 mg/kg,ip administrated for 2 weeks; assay type: organism-based; settings: in vivo, 336 h
[25] = Toxicity in BALB/c mouse xenografted with human HCT-116 cells assessed as change in body weight at 20 mg/kg,ip administrated for 2 weeks; assay type: organism-based; settings: in vivo, 336 h
[26] = Toxicity in BALB/c mouse xenografted with human HCT-116 cells assessed as change in heart weight at 10 mg/kg,ip administrated for 2 weeks; assay type: organism-based; settings: in vivo, 336 h
[27] = Toxicity in BALB/c mouse xenografted with human HCT-116 cells assessed as change in liver weight at 10 mg/kg,ip administrated for 2 weeks; assay type: organism-based; settings: in vivo, 336 h
[28] = Toxicity in BALB/c mouse xenografted with human HCT-116 cells assessed as change in liver weight at 20 mg/kg,ip administrated for 2 weeks; assay type: organism-based; settings: in vivo, 336 h
[29] = Toxicity in BALB/c mouse xenografted with human HCT-116 cells assessed as change in spleen weight at 10 mg/kg,ip administrated for 2 weeks; assay type: organism-based; settings: in vivo, 336 h
[30] = Toxicity in BALB/c mouse xenografted with human HCT-116 cells assessed as change in spleen weight at 20 mg/kg,ip administrated for 2 weeks; assay type: organism-based; settings: in vivo, 336 h
[31] = Toxicity in BALB/c mouse xenografted with human HCT-116 cells assessed as change in kidney weight at 10 mg/kg,ip administrated for 2 weeks; assay type: organism-based; settings: in vivo, 336 h
HCT-116 [32] = experiment: Antitumor activity against human HCT-116 cells xenografted in BALB/c mouse assessed as chromatin condensation at 10 mg/kg,ip administrated for 2 weeks by hematoxylin and eosin staining based analysis; assay type: functional, organism-based
HCT-116 [33] = experiment: Antitumor activity against human HCT-116 cells xenografted in BALB/c mouse assessed as chromatin condensation at 20 mg/kg,ip administrated for 2 weeks by hematoxylin and eosin staining based analysis; assay type: functional, organism-based
[34] = Toxicity in BALB/c mouse xenografted with human HCT-116 cells assessed as histopathological change in liver at 10 mg/kg,ip administrated for 2 weeks by hematoxylin and eosin staining based analysis; assay type: organism-based; settings: in vivo, 336 h
[35] = Toxicity in BALB/c mouse xenografted with human HCT-116 cells assessed as histopathological change in kidney at 20 mg/kg,ip administrated for 2 weeks by hematoxylin and eosin staining based analysis; assay type: organism-based; settings: in vivo, 336 h
[36] = Toxicity in BALB/c mouse xenografted with human HCT-116 cells assessed as change in serum creatinine level at 10 mg/kg,ip administrated for 2 weeks; assay type: organism-based; settings: in vivo, 336 h
[37] = Toxicity in BALB/c mouse xenografted with human HCT-116 cells assessed as change in serum AST level at 20 mg/kg,ip administrated for 2 weeks; assay type: organism-based; settings: in vivo, 336 h
HCT-116 [38] = experiment: Antitumor activity against human HCT-116 cells xenografted in BALB/c mouse assessed as upregulation of E-cad expression in tumor at 10 mg/kg,ip administrated for 2 weeks by Western blotting analysis; assay type: functional, organism-based
HCT-116 [39] = experiment: Antitumor activity against human HCT-116 cells xenografted in BALB/c mouse assessed as downregulation of FGFR4 signalling pathway in tumor at 10 mg/kg,ip administrated for 2 weeks by Western blotting analysis; assay type: functional, organism-based

C=CC(=O)NCCCn1c(=O)c(-c2c(Cl)c(OC)cc(OC)c2Cl)cc2cnc(Nc3c(C)cccc3NC(=O)C=C)cc21
23.8 µM: IC50 at 48 h [1]
Non-Toxic: Activity [15] | Activity [16] | Activity [17] | Activity [18] | Activity [19] | Activity [20] | Activity [21] | Activity [22] | Activity [23] | Activity [24] | Activity [25] | Activity [26] | Activity [27] | Activity [28] | Activity [29] | Activity [30] | Activity [31] | Activity [34] | Activity [35] | Activity [36] | Activity [37]
inactive: Activity (HCT-116 [13]) | Activity (SW480 [14])
0.00948 µM: IC50 (BaF3)
0.64%: Activity (HCT-116 [12])
active: Activity (SW480 [2]) Dose-Dependent Effect | Activity (SW480 [3]) Dose-Dependent Effect | Activity (RKO [4]) Dose-Dependent Effect | Activity (SW480 [5]) Dose-Dependent Effect | Activity (RKO [6]) Dose-Dependent Effect | Activity (HCT-116 [7]) | Activity (HCT-116 [8]) | Activity (SW480 [9]) | Activity (SW480 [10]) | Activity (RKO [11]) | Activity (HCT-116 [32]) | Activity (HCT-116 [33]) | Activity (HCT-116 [38]) | Activity (HCT-116 [39])

— ChEMBL document CHEMBL5625222, “Design, synthesis, and biological evaluation of 1,6-naphthyridine-2-one derivatives as novel FGFR4 inhibitors for the treatment of colorectal cancer” (Eur J Med Chem, 2023)
